From US20240067632A1, “WEE1 Degrading Compounds and Uses Thereof” (Bristol-Myers Squibb Company, priority 2022, published 2024) come the findings set out here.

The target in one assay is T1, WEE1 (Homo sapiens, UniProt P30291+Q96SW2).
T1 construct: C-terminal ePL-tagged (DiscoverX, Fremont, CA) full-length WEE1 expression construct; expressed in transfected cells; host or cells: LentiX-HEK293T (Invitrogen), lentiviral transduction; co-expressing GSPT1-GN (G576N, lacking the first 158 amino acids)
In words: WEE1-ePL degradation assay (LentiX-WEE1-ePL-GSPT1-ND cells, InCELL Hunter luminescence, 4 h). It is filed as cell-based. Particulars: 293T-LentiX WEE1-ePL cells; for 293T-LentiX WEE1-ePL Degradation 4 hr (Ymin): lower limit of the fit (0 = luciferase inhibitor, Ymax = DMSO control); for DC50: read-out: 293T-LentiX WEE1-ePL Degradation 4 hr (EC50). Put shortly:
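LentiX-HEK293T cells stably expressing C-terminally ePL-tagged full-length WEE1 were treated with compounds in a 10-point, 3-fold dilution series starting at 1 uM or 10 uM for 4 h at 37 °C. Remaining WEE1-ePL was detected by InCELL Hunter luminescence, and EC50, Ymin and Ymax came from a four-parameter logistic fit against DMSO control.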

For the next assay, the system named is MKN45 cells. Briefly: MKN45 cell proliferation assay (Cell-Titer-Glo, 120 h). Format: cell-based. To be noted: for EC50: Homo sapiens, MKN-45, 120 h, Cell-Titer-Glo, growth inhibition, read-out: MKN45 Cell Prolif. 120 hr (EC50); for MKN45 Cell Prolif. 120 hr (Ymin-Obs): minimal percent of DMSO control observed in the concentrations tested. An outline of the steps: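 Growth inhibition was read as blank-corrected Cell-Titer-Glo luminescence expressed as percent DMSO control after 120 h at 37 C, 400 cells/well. Compounds tested in triplicate as 10-point half-log series from 1 or 10 uM, 0.1% DMSO; four-parameter fit gave EC50, and lowest observed percent control was reported as Ymin-obs.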

Each structure is given as a SMILES string. Some results are limits rather than exact numbers.

As usually defined, the EC50 is the concentration at which the effect is half-maximal. With `O=C1CCC(N2Cc3cc(O[C@H]4CCN(Cc5cnc6c(c5)CCOC6)C4)ccc3C2=O)C(=O)N1` (stereo partly drawn) [3-(1-oxo-5-{[(3S)-1-({5H,6H,8H-pyrano[3,4-b]pyridin-3-yl}methyl)pyrrolidin-3-yl]oxy}-2,3-dihydro-1H-isoindol-2-yl)piperidine-2,6-dione], at WEE1, the “293T-LentiX WEE1-ePL Degradation 4 hr (Ymin)” value was determined as 30 and the DC50 amounted to 27.3 nM. In the assay on MKN45 cells, the EC50 was found to be 252 nM and the “MKN45 Cell Prolif. 120 hr (Ymin-Obs)” value is listed as 8.89.
`O=C1CCC(N2Cc3cc(O[C@H]4CCN(Cc5ccnc6c5CCOC6)C4)ccc3C2=O)C(=O)N1` (stereo partly drawn) [3-(1-oxo-5-{[(3S)-1-({5H,6H,8H-pyrano[3,4-b]pyridin-4-yl}methyl)pyrrolidin-3-yl]oxy}-2,3-dihydro-1H-isoindol-2-yl)piperidine-2,6-dione]: at WEE1, the “293T-LentiX WEE1-ePL Degradation 4 hr (Ymin)” value is recorded as 51 and the DC50 turned out to be 62.7 nM. Moreover, in the assay on MKN45 cells, the EC50 was determined as 1280 nM and the “MKN45 Cell Prolif. 120 hr (Ymin-Obs)” value is listed as 56.39.
For the molecule `O=C1CCC(N2Cc3cc(O[C@H]4CCN(Cc5cnc6c(c5)COCC6)C4)ccc3C2=O)C(=O)N1` (stereo partly drawn) [3-(1-oxo-5-{[(3S)-1-({5H,7H,8H-pyrano[4,3-b]pyridin-3-yl}methyl)pyrrolidin-3-yl]oxy}-2,3-dihydro-1H-isoindol-2-yl)piperidine-2,6-dione], at WEE1, the “293T-LentiX WEE1-ePL Degradation 4 hr (Ymin)” value turned out to be 35 and the DC50 was determined as 39.9 nM. Also, in the assay with MKN45 cells, the EC50 was determined as 456 nM and the “MKN45 Cell Prolif. 120 hr (Ymin-Obs)” value is 11.67.
For `O=C1CCC(N2Cc3cc(O[C@H]4CCN(Cc5cc6cc([C@H]7CCOC7)ccc6cn5)C4)ccc3C2=O)C(=O)N1` (stereo partly drawn) [3-(1-oxo-5-{[(3S)-1-({6-[(3R)-oxolan-3-yl]isoquinolin-3-yl}methyl)pyrrolidin-3-yl]oxy}-2,3-dihydro-1H-isoindol-2-yl)piperidine-2,6-dione], in that order: 28, 1.99 nM, 3.39 nM and 6.69.
The matching figures for `O=C1CCC(N2Cc3cc(O[C@H]4CCN(Cc5cc6cc([C@@H]7CCOC7)ccc6cn5)C4)ccc3C2=O)C(=O)N1` (stereo partly drawn) [3-(1-oxo-5-{[(3S)-1-({6-[(3S)-oxolan-3-yl]isoquinolin-3-yl}methyl)pyrrolidin-3-yl]oxy}-2,3-dihydro-1H-isoindol-2-yl)piperidine-2,6-dione]: 28, 5.38 nM, 12.9 nM and 5.87.
The matching figures for `O=C1CCC(N2Cc3cc(O[C@H]4CCN(Cc5cc6ccc([C@H]7CCOC7)cc6cn5)C4)ccc3C2=O)C(=O)N1` (stereo partly drawn) [3-(1-oxo-5-{[(3S)-1-({7-[(3R)-oxolan-3-yl]isoquinolin-3-yl}methyl)pyrrolidin-3-yl]oxy}-2,3-dihydro-1H-isoindol-2-yl)piperidine-2,6-dione]: 28, 1.41 nM, 2.96 nM and 8.5.
For `O=C1CCC(N2Cc3cc(O[C@H]4CCN(Cc5cc6ccc([C@@H]7CCOC7)cc6cn5)C4)ccc3C2=O)C(=O)N1` (stereo partly drawn) [3-(1-oxo-5-{[(3S)-1-({7-[(3S)-oxolan-3-yl]isoquinolin-3-yl}methyl)pyrrolidin-3-yl]oxy}-2,3-dihydro-1H-isoindol-2-yl)piperidine-2,6-dione], at WEE1, the “293T-LentiX WEE1-ePL Degradation 4 hr (Ymin)” value is 30 and the DC50 was determined as 1.66 nM. Further, in the assay with MKN45 cells, the half-maximal effective concentration (EC50) worked out at 1.84 nM and the “MKN45 Cell Prolif. 120 hr (Ymin-Obs)” value is reported as 7.635.
As for `O=C1CCC(N2Cc3cc(O[C@H]4CCN(Cc5ccc6c(c5)CCCN6)C4)ccc3C2=O)C(=O)N1` (stereo partly drawn) [3-(1-oxo-5-{[(3S)-1-[(1,2,3,4-tetrahydroquinolin-6-yl)methyl]pyrrolidin-3-yl]oxy}-2,3-dihydro-1H-isoindol-2-yl)piperidine-2,6-dione], at WEE1, the “293T-LentiX WEE1-ePL Degradation 4 hr (Ymin)” value is reported as 79 and the DC50 amounted to 3330 nM. Moreover, in the assay with MKN45 cells, the EC50 is above 10000 nM and the “MKN45 Cell Prolif. 120 hr (Ymin-Obs)” value turned out to be 93.175.
On to `O=C1CCC(N2Cc3cc(O[C@H]4CCN(Cc5cc6ccccc6[nH]c5=O)C4)ccc3C2=O)C(=O)N1` (stereo partly drawn) [3-(1-oxo-5-{[(3S)-1-[(2-oxo-1,2-dihydroquinolin-3-yl)methyl]pyrrolidin-3-yl]oxy}-2,3-dihydro-1H-isoindol-2-yl)piperidine-2,6-dione], for which, on WEE1, the “293T-LentiX WEE1-ePL Degradation 4 hr (Ymin)” value amounted to 37.28 and the DC50 stood at 112 nM. Besides, in the assay on MKN45 cells, the concentration giving a half-maximal response (EC50) turned out to be 1710 nM and the “MKN45 Cell Prolif. 120 hr (Ymin-Obs)” value was 30.3825.
For `O=C1CCC(N2Cc3cc(O[C@H]4CCN(Cc5ccc6[nH]c(=O)ccc6c5)C4)ccc3C2=O)C(=O)N1` (stereo partly drawn) [3-(1-oxo-5-{[(3S)-1-[(2-oxo-1,2-dihydroquinolin-6-yl)methyl]pyrrolidin-3-yl]oxy}-2,3-dihydro-1H-isoindol-2-yl)piperidine-2,6-dione], in that order: 40.56, 74.7 nM, 610 nM and 17.75.
For `O=C1CCC(N2Cc3cc(O[C@H]4CCN(Cc5ccc6ccc(=O)oc6c5)C4)ccc3C2=O)C(=O)N1` (stereo partly drawn) [3-(1-oxo-5-{[(3S)-1-[(2-oxo-2H-chromen-7-yl)methyl]pyrrolidin-3-yl]oxy}-2,3-dihydro-1H-isoindol-2-yl)piperidine-2,6-dione], in that order: 55, 28.8 nM, above 10000 nM and 85.765.
On to `O=C1CCC(N2Cc3cc(O[C@H]4CCN(Cc5ccc6c(c5)OC(=O)CN6)C4)ccc3C2=O)C(=O)N1` (stereo partly drawn) [3-(1-oxo-5-{[(3S)-1-[(2-oxo-3,4-dihydro-2H-1,4-benzoxazin-7-yl)methyl]pyrrolidin-3-yl]oxy}-2,3-dihydro-1H-isoindol-2-yl)piperidine-2,6-dione], for which, at WEE1, the “293T-LentiX WEE1-ePL Degradation 4 hr (Ymin)” value amounted to 80. In addition, in the assay with MKN45 cells, the EC50 is above 10000 nM and the “MKN45 Cell Prolif. 120 hr (Ymin-Obs)” value was determined as 90.28.
Consider `O=C1CCC(N2Cc3cc(O[C@H]4CCN(Cc5ccnc(-c6ccccc6)c5)C4)ccc3C2=O)C(=O)N1` (stereo partly drawn) [3-(1-oxo-5-{[(3S)-1-[(2-phenylpyridin-4-yl)methyl]pyrrolidin-3-yl]oxy}-2,3-dihydro-1H-isoindol-2-yl)piperidine-2,6-dione], for which, at WEE1, the “293T-LentiX WEE1-ePL Degradation 4 hr (Ymin)” value was found to be 38 and the DC50 came out at 6.94 nM. Also, in the assay on MKN45 cells, the EC50 stood at 23 nM and the “MKN45 Cell Prolif. 120 hr (Ymin-Obs)” value amounted to 9.19.
In the case of `CO[C@H]1CC[C@](C)(Nc2ccc3cc(CN4CC[C@H](Oc5ccc6c(c5)CN(C5CCC(=O)NC5=O)C6=O)C4)ccc3n2)CC1` (stereo partly drawn) [3-(1-oxo-5-{[(3S)-1-[(2-{[(1r,4r)-4-methoxy-1-methylcyclohexyl]amino}quinolin-6-yl)methyl]pyrrolidin-3-yl]oxy}-2,3-dihydro-1H-isoindol-2-yl)piperidine-2,6-dione], on WEE1, the “293T-LentiX WEE1-ePL Degradation 4 hr (Ymin)” value turned out to be 30 and the DC50 was 5.36 nM. Moreover, in the assay with MKN45 cells, the EC50 is 4.2 nM and the “MKN45 Cell Prolif. 120 hr (Ymin-Obs)” value was determined as 8.155.
